Test results reported in patent US9884063B2, “Amido-substituted azole compounds” (Bayer Pharma Aktiengesellschaft, priority 2014, dated 2018).

How the values were obtained:
TNKS2 = biological target: T1, TNKS2 (Homo sapiens, UniProt Q9H2K2); experiment: TNKS2 Assay 1 (TNKS2 Histone Ribosylation Assay Kit, biotin-labeled NAD+); type: biochemical; details: chemiluminescent readout, 384 well
T1 sequence (Q9H2K2 1-1166): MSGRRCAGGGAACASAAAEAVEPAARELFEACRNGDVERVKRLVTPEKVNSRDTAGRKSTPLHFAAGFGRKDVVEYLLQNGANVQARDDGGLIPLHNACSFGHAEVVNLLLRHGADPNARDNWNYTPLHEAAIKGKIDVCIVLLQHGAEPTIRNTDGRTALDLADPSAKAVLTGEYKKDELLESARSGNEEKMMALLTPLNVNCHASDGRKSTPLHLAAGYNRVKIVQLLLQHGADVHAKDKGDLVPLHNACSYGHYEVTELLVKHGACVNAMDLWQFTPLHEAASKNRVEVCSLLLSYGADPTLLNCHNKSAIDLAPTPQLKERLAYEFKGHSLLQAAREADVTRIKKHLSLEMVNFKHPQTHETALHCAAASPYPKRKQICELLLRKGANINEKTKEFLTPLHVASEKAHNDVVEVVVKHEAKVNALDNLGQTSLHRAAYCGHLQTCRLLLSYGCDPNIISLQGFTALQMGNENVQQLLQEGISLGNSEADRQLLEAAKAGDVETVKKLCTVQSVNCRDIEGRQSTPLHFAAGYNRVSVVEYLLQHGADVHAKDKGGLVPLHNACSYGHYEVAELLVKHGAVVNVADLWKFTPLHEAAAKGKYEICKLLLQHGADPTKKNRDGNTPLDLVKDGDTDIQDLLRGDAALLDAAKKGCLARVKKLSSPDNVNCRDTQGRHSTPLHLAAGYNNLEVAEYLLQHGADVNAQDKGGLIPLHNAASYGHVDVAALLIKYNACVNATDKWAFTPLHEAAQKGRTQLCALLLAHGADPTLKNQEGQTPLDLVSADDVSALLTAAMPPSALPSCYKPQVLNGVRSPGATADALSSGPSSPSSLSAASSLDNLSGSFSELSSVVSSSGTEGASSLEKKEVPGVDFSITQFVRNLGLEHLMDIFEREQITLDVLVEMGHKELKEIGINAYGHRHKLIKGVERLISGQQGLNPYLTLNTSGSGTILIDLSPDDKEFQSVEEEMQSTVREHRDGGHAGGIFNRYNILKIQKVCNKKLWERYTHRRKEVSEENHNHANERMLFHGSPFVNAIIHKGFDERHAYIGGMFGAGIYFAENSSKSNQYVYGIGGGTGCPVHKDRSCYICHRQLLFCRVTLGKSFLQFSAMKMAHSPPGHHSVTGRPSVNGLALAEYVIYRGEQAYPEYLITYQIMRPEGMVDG
Protocol: The potency of the compounds according to the invention was assessed applying an in vitro inhibition assay. The TNKS2 catalyzed NAD^+-dependent ribosylation of a suitable protein substrate was detected using a commercially available biotin/streptavidin binding based assay format [TNKS2 Histone Ribosylation Assay Kit (Biotin-labeled NAD+), Catalog #80572; BPS Bioscience, San Diego, USA]. Here, the incorporation of a biotin-labeled NAD+ during the TNKS2 catalyzed ribosylation reaction was detected with a streptavidin-HRP coupled chemi-luminescent readout. The intensity of the readout signal is proportional to the incorporated NAD^+. Inhibition of TNKS2 leads to a decreased incorporation of NAD^+ and consequently to a lower readout signal intensity. The concentration of a test compound which inhibits the enzyme activity by 50% (corresponds to half of the normed readout signal intensity) is reported as IC50.
The assay was conducted in a 384 well MTP format according to the manufacturer's protocol [bpsbioscience.com/poly-adp-ribose-polymerase/assay-kit/tnks2-histone-ribosylation-assay-kit-biotin-labeled-nad-80572 referencing: Brown, J. A., Marala, R. B. J. Pharmacol. Toxicol. Methods 2002 47:137-41]. and using a BMG Pherastar MTP reader [BMG-Labtech, Offenburg, Germany].

[1] = tested on: HEK293 FOP control reporter cell line; experiment: HEK293 FOP Assay (FOP control vector luciferase reporter); type: cell-based; details: Homo sapiens
In short: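 Stable HEK293 line carrying the FOP vector (randomized, non-functional TCF sites; Geneticin-selected) was run in parallel with the TOP line. Cells were plated 24 h ahead at 10000/well and given recombinant human Wnt-3a at 2500–5 ng/ml. Compounds were tested at 50 μM–15 nM (3.16-fold steps) in CAFTY buffer, pH 7.4, with 2 mM Ca2+ and 0.01% BSA.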

[2] = HEK293 FOP control reporter cells, 16 hours, luciferase, dilution series from 50 μM
[3] = HEK293 FOP control reporter cell line, 16 hours incubation, compound dilution series 50 μM to 15 nM

IC50 (TNKS2; Table 2) [µM]	IC50 (TNKS2; first table) [µM]	SMILES	IC50 [1, 2] [µM]	IC50 [1, 3] [µM]
1.1	1.14	CC(C)NC(=O)c1ncoc1C(=O)Nc1ccc(NC(=O)c2ccc(F)cc2Cl)cc1 [Example 15, N^5-{4-[(2-chloro-4-fluorobenzoyl)amino]phenyl}-N^4-isopropyl-1,3-oxazole-4,5-dicarboxamide]	≥ 50	
0.06	0.06	CNC(=O)c1nc[nH]c1C(=O)Nc1ccc(NC(=O)c2ccc(OCCN3CCN(C)CC3)cc2Cl)cc1 [Example 28, N^5-[4-({2-chloro-4-[2-(4-methylpiperazin-1-yl)ethoxy]benzoyl}amino)phenyl]-N^4-methyl-1H-imidazole-4,5-dicarboxamide]	42	36
0.16	0.16	CNC(=O)c1nc[nH]c1C(=O)Nc1ccc(NC(=O)c2c(Cl)cccc2Cl)cc1 [Example 26, N^5-{4-[(2,6-dichlorobenzoyl)amino]phenyl}-N^4-methyl-1H-imidazole-4,5-dicarboxamide]	≥ 50	
0.29	0.29	CNC(=O)c1nc[nH]c1C(=O)Nc1ccc(NC(=O)c2ccccc2C)cc1 [Example 19, N^4-methyl-N^5-{4-[(2-methylbenzoyl)amino]phenyl}-1H-imidazole-4,5-dicarboxamide]	11	26.5
0.04	0.04	CNC(=O)c1nc[nH]c1C(=O)Nc1ccc(NC(=O)c2ccc(F)cc2Cl)nc1 [Example 16, N^5-{6-[(2-chloro-4-fluorobenzoyl)amino]pyridin-3-yl}-N^4-methyl-1H-imidazole-4,5-dicarboxamide]	≥ 50	
7	7	CC(NC(=O)c1ncoc1C(=O)Nc1ccc(NC(=O)c2ccc(F)cc2Cl)cc1)c1ccccc1 (centres unmarked) [Example 8, N^5-{4-[(2-chloro-4-fluorobenzoyl)amino]phenyl}-N^4-(1-phenylethyl)-1,3-oxazole-4,5-dicarboxamide]	≥ 50	
0.03	0.02	CNC(=O)c1nc[nH]c1C(=O)Nc1ccc(NC(=O)c2ccc(Cl)cc2Cl)cc1 [Example 9, N^5-{4-[(2,4-dichlorobenzoyl)amino]phenyl}-N^4-methyl-1H-imidazole-4,5-dicarboxamide]	40	31.5
0.04	0.04	CNC(=O)c1nc[nH]c1C(=O)Nc1ccc(NC(=O)c2ccccc2Cl)cc1 [Example 27, N^5-{4-[(2-chlorobenzoyl)amino]phenyl}-N^4-methyl-1H-imidazole-4,5-dicarboxamide]	≥ 50	
0.07	0.07	O=C(Nc1ccc(NC(=O)c2[nH]cnc2C(=O)NCC(F)(F)F)cc1)c1ccc(F)cc1Cl [Example 30, N^4-{4-[(2-chloro-4-fluorobenzoyl)amino]phenyl}-N^5-(2,2,2-trifluoroethyl)-1H-imidazole-4,5-dicarboxamide]	37.5	
0.06	0.06	CNC(=O)c1nc[nH]c1C(=O)Nc1ccc(NC(=O)c2ccc(OCCN(C)C)cc2Cl)cc1 [Example 25, N^5-[4-({2-chloro-4-[2-(dimethylamino)ethoxy]benzoyl}amino)phenyl]-N^4-methyl-1H-imidazole-4,5-dicarboxamide]	34	34
0.23	0.23	CC(C)NC(=O)c1nc[nH]c1C(=O)Nc1ccc(NC(=O)c2ccc(F)cc2Cl)cc1 [Example 10, N^5-{4-[(2-chloro-4-fluorobenzoyl)amino]phenyl}-N^4-isopropyl-1H-imidazole-4,5-dicarboxamide]	≥ 50	46
0.09	0.09	CNC(=O)c1nc[nH]c1C(=O)Nc1ccc(NC(=O)c2ccc(N(C)C)cc2Cl)cc1 [Example 4, N^5-(4-{[2-chloro-4-(dimethylamino)benzoyl]amino}phenyl)-N^4-methyl-1H-imidazole-4,5-dicarboxamide]	42	42
2.2	2.2	CNC(=O)c1nc[nH]c1C(=O)Nc1ccc(NC(=O)c2c(-c3ccccc3)nn(C)c2Cl)cc1 [Example 17, N^5-(4-{[(5-chloro-1-methyl-3-phenyl-1H-pyrazol-4-yl)carbonyl]amino}phenyl)-N^4-methyl-1H-imidazole-4,5-dicarboxamide]	26	26
30		CNC(=O)c1nc[nH]c1C(=O)Nc1ccc(NC(=O)c2ccc(N3CCCC3)cc2F)cc1 [Example 3, N^5-(4-{[2-fluoro-4-(pyrrolidin-1-yl)benzoyl]amino}phenyl)-N^4-methyl-1H-imidazole-4,5-dicarboxamide]	≥ 50	
1.7	1.7	CNC(=O)c1nc[nH]c1C(=O)Nc1ccc(NC(=O)c2ccc(F)cc2)cc1 [Example 20, N^5-{4-[(4-fluorobenzoyl)amino]phenyl}-N^4-methyl-1H-imidazole-4,5-dicarboxamide]	31	40.5
0.47	0.47	CNC(=O)c1nc[nH]c1C(=O)Nc1ccc(NC(=O)c2ccc(F)cc2Cl)c(C)c1 [Example 5, N^5-{4-[(2-chloro-4-fluorobenzoyl)amino]-3-methylphenyl}-N^4-methyl-1H-imidazole-4,5-dicarboxamide]	11	11
> 100		CNC(=O)c1[nH]cnc1C(=O)Nc1ccc(NC(=O)c2cc(Cl)sc2Cl)cc1 [Example 213, N^4-(4-{[(2,5-dichloro-3-thienyl)carbonyl]amino}phenyl)-N^5-methyl-1H-imidazole-4,5-dicarboxamide]		8.4
0.02	0.02	CNC(=O)c1nc[nH]c1C(=O)Nc1ccc(NC(=O)c2cccc(Cl)c2Cl)cc1 [Example 1, N^5-{4-[(2,3-dichlorobenzoyl)amino]phenyl}-N^4-methyl-1H-imidazole-4,5-dicarboxamide]	25	24
0.09	0.12	CNC(=O)c1ncoc1C(=O)Nc1ccc(NC(=O)c2ccc(F)cc2Cl)cc1 [Example 11, N^5-{4-[(2-chloro-4-fluorobenzoyl)amino]phenyl}-N^4-methyl-1,3-oxazole-4,5-dicarboxamide]	≥ 50	
0.85	0.85	O=C(Nc1ccc(NC(=O)c2[nH]cnc2C(=O)NCc2ccccc2)cc1)c1ccc(F)cc1Cl [Example 18, N^4-benzyl-N^5-{4-[(2-chloro-4-fluorobenzoyl)amino]phenyl}-1H-imidazole-4,5-dicarboxamide]	≥ 50	
0.3	0.3	COC(=O)c1ncoc1C(=O)Nc1ccc(NC(=O)c2ccc(F)cc2Cl)cc1 [Example 14, Methyl 5-({4-[(2-chloro-4-fluorobenzoyl)amino]phenyl}carbamoyl)-1,3-oxazole-4-carboxylate]	≥ 50	
